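The compound was tested at five concentrations on cells cultured in 96-well plates, with a 48-hour exposure period. Here, GI50 denotes the concentration required for 50% inhibition of growth. TGI: concentration producing complete growth inhibition.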
Tests used:
Test in all cases: growth of human tumour cells (NCI), 48 h
COLO 205 colon = system: COLO 205 colon
EKVX NSCLC = system: EKVX NSCLC
HCT-116 colon = system: HCT-116 colon
HOP-62 NSCLC = system: HOP-62 NSCLC
HOP-92 NSCLC = system: HOP-92 NSCLC
LOX IMVI melanoma = system: LOX IMVI melanoma
OVCAR-5 ovarian = system: OVCAR-5 ovarian
SF-268 CNS = system: SF-268 CNS
SF-295 CNS = system: SF-295 CNS
UACC-62 melanoma = system: UACC-62 melanoma

`CC1(C)N=C(N)N=C(N)N1c1cccc(CCCCc2ccc(Cl)c(S(=O)(=O)F)c2)c1` was tested, and the GI50 (COLO 205 colon) was 1.75 µM, the TGI (COLO 205 colon) was 18.6 µM and the GI50 (EKVX NSCLC) was 11.4 µM. It also gave a TGI (EKVX NSCLC) of 39.8 µM, a GI50 (HCT-116 colon) of 0.457 µM and a TGI (HCT-116 colon) of 13.5 µM. It also gave a GI50 (HOP-62 NSCLC) of 6.34 µM, a TGI (HOP-62 NSCLC) of 21.2 µM and a GI50 (HOP-92 NSCLC) of 4.7 µM. The TGI (HOP-92 NSCLC) was 21.4 µM, the GI50 (LOX IMVI melanoma) was 0.433 µM and the TGI (LOX IMVI melanoma) was 16.1 µM. For the same molecule, the GI50 (OVCAR-5 ovarian) was 6.02 µM, the TGI (OVCAR-5 ovarian) was 22.1 µM and the GI50 (SF-268 CNS) was 1.47 µM. For the same molecule, the TGI (SF-268 CNS) was 16.2 µM, the GI50 (SF-295 CNS) was 2.56 µM and the TGI (SF-295 CNS) was 13.4 µM. The GI50 (UACC-62 melanoma) was 0.732 µM and the TGI (UACC-62 melanoma) was 17.2 µM.

In the case of `FC(F)(F)c1cccc(Oc2ccc(Nc3ncnc4ccc(OCCCN5CCOCC5)cc34)cc2Cl)c1`, the GI50 (COLO 205 colon) is reported as 2 µM, the TGI (COLO 205 colon) is reported as 4.47 µM and the GI50 (EKVX NSCLC) is reported as 0.872 µM. For the same molecule, the TGI (EKVX NSCLC) was 8.47 µM, the GI50 (HCT-116 colon) was 1.62 µM and the TGI (HCT-116 colon) was 3.08 µM. For the same molecule, the GI50 (HOP-62 NSCLC) was 2.33 µM, the TGI (HOP-62 NSCLC) was 5.18 µM and the GI50 (HOP-92 NSCLC) was 1.76 µM. The TGI (HOP-92 NSCLC) was 7.82 µM, the GI50 (LOX IMVI melanoma) was 1.71 µM and the TGI (LOX IMVI melanoma) was 3.45 µM. It also gave a GI50 (OVCAR-5 ovarian) of 2.45 µM, a TGI (OVCAR-5 ovarian) of 7.76 µM and a GI50 (SF-268 CNS) of 2.06 µM. It also gave a TGI (SF-268 CNS) of 6.82 µM, a GI50 (SF-295 CNS) of 1.75 µM and a TGI (SF-295 CNS) of 3.49 µM. The GI50 (UACC-62 melanoma) was 1.7 µM and the TGI (UACC-62 melanoma) was 3.13 µM.

Work on `COc1nc2c(c(=O)n1C)CN(c1ccccc1)C(=O)CN2C` yielded a GI50 (COLO 205 colon) of 40.6 µM, a TGI (COLO 205 colon) of over 100 µM and a GI50 (EKVX NSCLC) of 19.9 µM. It also gave a TGI (EKVX NSCLC) of over 100 µM, a GI50 (HCT-116 colon) of 60.5 µM and a TGI (HCT-116 colon) of over 100 µM. It also gave a GI50 (HOP-62 NSCLC) of over 100 µM, a TGI (HOP-62 NSCLC) of over 100 µM and a GI50 (HOP-92 NSCLC) of 0.852 µM. For the same molecule, the TGI (HOP-92 NSCLC) was 55.1 µM, the GI50 (LOX IMVI melanoma) was over 100 µM and the TGI (LOX IMVI melanoma) was over 100 µM. The GI50 (OVCAR-5 ovarian) was over 100 µM, the TGI (OVCAR-5 ovarian) was over 100 µM and the GI50 (SF-268 CNS) was 36.8 µM. The TGI (SF-268 CNS) was over 100 µM, the GI50 (SF-295 CNS) was 52.6 µM and the TGI (SF-295 CNS) was over 100 µM. The GI50 (UACC-62 melanoma) was 45.8 µM and the TGI (UACC-62 melanoma) was over 100 µM.

For `N[C@@H](Cc1c[nH]c2ccccc12)C(=O)NC1CCN(Cc2c[nH]c3ccc(Cl)cc23)CC1`, the GI50 (COLO 205 colon) was 2.11 µM, the TGI (COLO 205 colon) was 4.65 µM and the GI50 (EKVX NSCLC) was 10.9 µM. For the same molecule, the TGI (EKVX NSCLC) was 25.1 µM, the GI50 (HCT-116 colon) was 3.87 µM and the TGI (HCT-116 colon) was 12.6 µM. It also gave a GI50 (HOP-62 NSCLC) of 11 µM, a TGI (HOP-62 NSCLC) of 24.8 µM and a GI50 (HOP-92 NSCLC) of 3.86 µM. For the same molecule, the TGI (HOP-92 NSCLC) was 17.2 µM, the GI50 (LOX IMVI melanoma) was 2.77 µM and the TGI (LOX IMVI melanoma) was 8.95 µM. The GI50 (OVCAR-5 ovarian) was 5.14 µM, the TGI (OVCAR-5 ovarian) was 20.8 µM and the GI50 (SF-268 CNS) was 7.74 µM. The TGI (SF-268 CNS) was 22 µM, the GI50 (SF-295 CNS) was 6.34 µM and the TGI (SF-295 CNS) was 20.1 µM. The GI50 (UACC-62 melanoma) was 5.56 µM and the TGI (UACC-62 melanoma) was 18.3 µM.

Molecule `C/C(=N\NC(=O)c1ccccc1O)c1c(O)cc(C)oc1=O` has a TGI (COLO 205 colon) of over 100 µM, a TGI (EKVX NSCLC) of 88.6 µM and a TGI (HCT-116 colon) of over 100 µM. For the same molecule, the TGI (HOP-62 NSCLC) was over 100 µM, the TGI (HOP-92 NSCLC) was 68.3 µM and the TGI (LOX IMVI melanoma) was over 100 µM. The TGI (OVCAR-5 ovarian) was over 100 µM, the TGI (SF-268 CNS) was over 100 µM and the TGI (SF-295 CNS) was over 100 µM. It also gave a TGI (UACC-62 melanoma) of over 100 µM.

In the case of `COc1ccc2cc(C(=O)N3CCC([C@@H](C)C(=O)NCc4ccc5c(c4)OCO5)CC3)[nH]c2c1`, the GI50 (COLO 205 colon) is reported as over 100 µM, the TGI (COLO 205 colon) is reported as over 100 µM and the GI50 (EKVX NSCLC) is reported as over 100 µM. It also gave a TGI (EKVX NSCLC) of over 100 µM, a GI50 (HCT-116 colon) of over 100 µM and a TGI (HCT-116 colon) of over 100 µM. For the same molecule, the GI50 (HOP-62 NSCLC) was 45.9 µM, the TGI (HOP-62 NSCLC) was over 100 µM and the GI50 (HOP-92 NSCLC) was 23.4 µM. It also gave a TGI (HOP-92 NSCLC) of over 100 µM, a GI50 (LOX IMVI melanoma) of 50.1 µM and a TGI (LOX IMVI melanoma) of over 100 µM. The GI50 (OVCAR-5 ovarian) was over 100 µM, the TGI (OVCAR-5 ovarian) was over 100 µM and the GI50 (SF-268 CNS) was 77.3 µM. The TGI (SF-268 CNS) was over 100 µM, the GI50 (SF-295 CNS) was 68.5 µM and the TGI (SF-295 CNS) was over 100 µM. It also gave a GI50 (UACC-62 melanoma) of 28.1 µM and a TGI (UACC-62 melanoma) of over 100 µM.

In the case of `OCC1CC2C=CCC(C2)C1` (stereo not given), the TGI (COLO 205 colon) is reported as over 100 µM, the TGI (EKVX NSCLC) is reported as over 100 µM and the TGI (HCT-116 colon) is reported as over 100 µM. For the same molecule, the TGI (HOP-62 NSCLC) was over 100 µM, the TGI (HOP-92 NSCLC) was over 100 µM and the TGI (LOX IMVI melanoma) was over 100 µM. The TGI (OVCAR-5 ovarian) was over 100 µM, the TGI (SF-268 CNS) was over 100 µM and the TGI (SF-295 CNS) was over 100 µM. It also gave a TGI (UACC-62 melanoma) of over 100 µM.

`CCCCNC(=O)Oc1ccc(/C(=C(\C)c2ccc(OC)cc2)c2ccc(OCCN3CCCCC3)cc2)cc1` showed a GI50 (COLO 205 colon) of 2.07 µM, a TGI (COLO 205 colon) of 4.63 µM and a GI50 (EKVX NSCLC) of 5.18 µM. The TGI (EKVX NSCLC) was 22.9 µM, the GI50 (HCT-116 colon) was 1.15 µM and the TGI (HCT-116 colon) was 2.38 µM. It also gave a GI50 (HOP-62 NSCLC) of 3.15 µM, a TGI (HOP-62 NSCLC) of 10.7 µM and a GI50 (HOP-92 NSCLC) of 1.57 µM. For the same molecule, the TGI (HOP-92 NSCLC) was 3.71 µM, the GI50 (LOX IMVI melanoma) was 1.83 µM and the TGI (LOX IMVI melanoma) was 3.44 µM. For the same molecule, the GI50 (OVCAR-5 ovarian) was 7.27 µM, the TGI (OVCAR-5 ovarian) was 23.2 µM and the GI50 (SF-268 CNS) was 5.55 µM. For the same molecule, the TGI (SF-268 CNS) was 20.5 µM, the GI50 (SF-295 CNS) was 2.27 µM and the TGI (SF-295 CNS) was 5.47 µM. It also gave a GI50 (UACC-62 melanoma) of 2.06 µM and a TGI (UACC-62 melanoma) of 4.1 µM.

`C[C@]12CC[C@@H]3c4ccc(O)cc4CC[C@H]3[C@@H]1CC(Cc1ccccc1)(Cc1ccccc1)C2=O` was tested, and the GI50 (COLO 205 colon) was 13.4 µM, the TGI (COLO 205 colon) was 31.9 µM and the GI50 (EKVX NSCLC) was 10.9 µM. The TGI (EKVX NSCLC) was 24.7 µM, the GI50 (HCT-116 colon) was 8.59 µM and the TGI (HCT-116 colon) was 20.7 µM. It also gave a GI50 (HOP-62 NSCLC) of 17.7 µM, a TGI (HOP-62 NSCLC) of 32.9 µM and a GI50 (HOP-92 NSCLC) of 2.16 µM. It also gave a TGI (HOP-92 NSCLC) of 9.77 µM, a GI50 (LOX IMVI melanoma) of 12.7 µM and a TGI (LOX IMVI melanoma) of 27.2 µM. The GI50 (OVCAR-5 ovarian) was 17.2 µM, the TGI (OVCAR-5 ovarian) was 31.5 µM and the GI50 (SF-268 CNS) was 21.2 µM. For the same molecule, the TGI (SF-268 CNS) was 58.3 µM, the GI50 (SF-295 CNS) was 21.4 µM and the TGI (SF-295 CNS) was 49.1 µM. For the same molecule, the GI50 (UACC-62 melanoma) was 15.1 µM and the TGI (UACC-62 melanoma) was 29.3 µM.

Source: PubChem BioAssay (NCI)
